Consider one compound from publication PMC3900249 (Clinical pharmacology and therapeutics, 2012).

The subject of data set [1] is CYP2C9-mediated (S)-warfarin 7-hydroxylation. Briefly: Prediction of in vivo warfarin drug interaction from [I]/KI and [I]u/KI,u. Details: species or system human. The following applies: equation 1.
For data set [2] the following is noted: single warfarin dose studies, healthy volunteers (n = 5 or 6); cited from earlier work.

On to `CC(=O)C[C@@H](c1ccccc1)c1c(O)c2ccccc2oc1=O` [(S)-warfarin], for which the “predicted increase in AUC” value in data set [1] (sum of [I]/KI ratios of AMIO and circulating metabolites) is reported as 6 fold; in data set [1] (sum of [I]u/KI,u ratios of AMIO and circulating metabolites), 6 fold. Besides, in data set [2], the “actual increase in the mean AUC caused by the drug interaction with AMIO” value is on record as 27 to 110%.
